Assay results: patent publication US20210401805A1, “Immune CB1 Activation for Obesity Therapy” (University of South Carolina, priority 2020, published 2021)
“Also recorded” adds a separate entry of the source.

Key:
12-week HFD-fed DIO mice [1] = test: DIO intervention study: body weight, fat mass, fat pad weight, food intake; assay type: in vivo; settings: 21 consecutive days
12-week HFD-fed DIO mice [2] = test: Oral glucose tolerance test in DIO intervention study; assay type: in vivo; settings: 21 consecutive days
[3] = tested on: epididymal CD11b+F4/80+ ATMs and CD11c+ M1 ATMs; test: Flow cytometry of epididymal adipose tissue macrophages in DIO intervention study; assay type: in vivo, mice
[4] = tested on: 12-week HFD-fed CB2−/− DIO mice; test: DIO intervention study in CB2-/- mice: body weight, adiposity, appetite; assay type: in vivo; settings: AM251 10 mg/kg oral gavage, 21 consecutive days
DIO mice [5] = settings: 4 weeks' treatment of DIO mice; cited from earlier work
DIO mice [6] = settings: chronic administration in DIO mice; cited from earlier work
6-week 36% HFD-fed mice = settings: cited from earlier work
[7] = tested on: diet-induced obese (DIO) mice; settings: treatment of DIO mice with CB1 antagonist; cited from earlier work
[8] = tested on: 20 week 21% HFD-fed DIO mice; settings: 15 days of CB2 agonism; cited from earlier work
[9] = SR144528 10 mg/kg oral gavage, versus vehicle-treated mice
[10] = AM251 10 mg/kg oral gavage, WT DIO mice
[11] = 6-week 36% HFD-fed mice, treatment for 15 days
[12] = JWH-133 5 mg/kg oral gavage, 21 consecutive days, 5 mg/kg
[13] = Deveaux et al., 15 day treatment of 6-week HFD-fed DIO

SR144528
body weight (12-week HFD-fed DIO mice [1]; [9]): no changes
food intake (12-week HFD-fed DIO mice [1]; [9]): no changes
glucose tolerance (12-week HFD-fed DIO mice [2]; [9]): no changes
adipose tissue inflammation ([3]; SR144528 10 mg/kg oral gavage, 21 consecutive days, versus vehicle-treated mice): no changes

Cc1c(C(=O)NN2CCCCC2)nn(-c2ccc(Cl)cc2Cl)c1-c1ccc(I)cc1 [AM251]
fat pad mass (12-week HFD-fed DIO mice [1]; AM251 10 mg/kg oral gavage): reduced
adiposity (12-week HFD-fed DIO mice [1]; [10]): reduced
appetite (12-week HFD-fed DIO mice [1]; [10]): suppressed
body weight (12-week HFD-fed DIO mice [1]; [10]): weight loss
epididymal ATM numbers ([3]; AM251 10 mg/kg oral gavage, after 3 weeks of treatment, 10 mg/kg): remained constant; also recorded: persistent abundance
adiposity [4]: reduced
appetite [4]: suppressed
body weight [4]: weight loss
body weight (DIO mice [5]): rapid and sustained weight loss

CCCCCc1cc(O)c2c(c1)OC(C)(C)[C@@H]1CCC(C)=C[C@@H]21 [THC, delta-9-tetrahydrocannabinol]
HFD-induced adiposity (DIO mice [6]): reduces
HFD-induced polyphagia (DIO mice [6]): reduces
HFD-induced weight gain (DIO mice [6]): reduces

COc1ccc(C(=O)c2c(C)n(CCN3CCOCC3)c3cc(I)ccc23)cc1 [AM630]
adipose tissue inflammatory markers (6-week 36% HFD-fed mice; [11]): reduced
ATMs (6-week 36% HFD-fed mice; 6-week 36% HFD-fed mice): reduced

CCCC(C)(C)c1ccc2c(c1)OC(C)(C)[C@@H]1CC=C(C)C[C@@H]21 [JWH-133]
body weight (12-week HFD-fed DIO mice [1]; JWH-133 5 mg/kg oral gavage): did not significantly alter
fat mass (12-week HFD-fed DIO mice [1]; JWH-133 5 mg/kg oral gavage): did not significantly alter
food intake (12-week HFD-fed DIO mice [1]; JWH-133 5 mg/kg oral gavage): did not significantly alter
fat pad mass (12-week HFD-fed DIO mice [1]; JWH-133 5 mg/kg oral gavage, 5 mg/kg): fat pad loss; also recorded: fat pad shrinkage
glucose tolerance (12-week HFD-fed DIO mice [2]; JWH-133 5 mg/kg oral gavage): did not significantly alter
numbers of M1 ATMs per gram of fat ([3]; JWH-133 5 mg/kg oral gavage, 21 consecutive days): increased
numbers of ATMs per gram of fat [3, 12]: increased and more
total ATMs [3, 12]: promoted persistence; also recorded: stable abundance
adipose tissue inflammatory markers (6-week 36% HFD-fed mice; [11]): increased
body weight (6-week 36% HFD-fed mice; [11]): no change
obesity (6-week 36% HFD-fed mice; [13]): potentiated
white adipose tissue expression of Emr1 (macrophage marker F4/80) (6-week 36% HFD-fed mice; [13]): increased

Cc1c(C(=O)NN2CCCCC2)nn(-c2ccc(Cl)cc2Cl)c1-c1ccc(Cl)cc1 [SR141716A]
metabolic impairments [7]: amelioration
obesity [7]: amelioration
adipose tissue inflammation (DIO mice [5]): decreased
body weight (DIO mice [5]): rapid and sustained weight loss

CCCn1c(C)c(C(=O)c2cccc3ccccc23)c2ccccc21 [JWH-015]
adiposity [8]: reduced
appetite response [8]: anorectic response
body weight loss [8]: approximately 10%
glucose tolerance [8]: improved
lipolysis [8]: increased
